Data on two compounds can be found in US8846704B2, “Thiopyrimidine-based compounds and uses thereof” (YM Biosciences Austraila Pty Ltd, priority 2007, dated 2014).

For this experiment, the target named is T1, human CSF1-R (FMS) (Homo sapiens, UniProt P07333).
T1 construct: from codon I553 to Q961; GST (N); made in house; host or cells: Sf9 insect cells (baculovirus)
T1 sequence (P07333 553-961): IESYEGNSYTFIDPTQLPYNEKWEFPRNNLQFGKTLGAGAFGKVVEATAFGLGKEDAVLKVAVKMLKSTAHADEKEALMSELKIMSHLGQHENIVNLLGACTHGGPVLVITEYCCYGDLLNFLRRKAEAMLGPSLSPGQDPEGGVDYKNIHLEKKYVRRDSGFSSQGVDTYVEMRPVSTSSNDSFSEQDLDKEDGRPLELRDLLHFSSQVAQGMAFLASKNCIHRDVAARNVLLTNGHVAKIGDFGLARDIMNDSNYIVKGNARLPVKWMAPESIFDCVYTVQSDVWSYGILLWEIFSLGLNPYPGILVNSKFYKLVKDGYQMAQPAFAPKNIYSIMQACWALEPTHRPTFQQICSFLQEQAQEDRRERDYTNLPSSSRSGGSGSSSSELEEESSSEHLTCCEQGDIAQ
Nature of the experiment: Alphascreen tyrosine kinase enzyme assay, CSF-1R (FMS) kinase domain. Type of experiment: biochemical. The note with it: read-out: FMS, FLT3, or HCK IC50_nM (FMS). How it is done:
For screening purposes, compounds (in 100% DMSO) were warmed at 37 degrees for at least 20 minutes before use. A […] stock was initially made in assay buffer, where the final concentration of DMSO was 0.3%. The stocks were then diluted in 384 well Optiplates (Packard) where the final concentration of the compound was […].
The kinase domain of human CSF1-R from codon I553 to Q961 was cloned into the pDest20 expression vector (Invitrogen). The CSF1-R plasmid was then transformed into competent DH10Bac cells (Gibco), and the recombinant baculovirus produced prepared for transfection into Sf9 insect cells.
Baculovirus preparations from each of the constructs were infected into either one or five liters of Sf9 cells (Invitrogen) grown in SF-900 medium (Invitrogen) to a cell density of approximately 1-2×10^6 cells/ml. Cells were infected with virus at a MOI of 0.8-3.0. Cells were harvested and lysed. Tyrosine kinase domains were purified by affinity chromatography on a glutathione-agarose column (Scientifix Pty. Ltd. catalog #: GSH-200).
Kinase assays were performed in 384 well Optiplates (Packard) using an Alphascreen Protein Tyrosine Kinase PY100 detection kit The compounds were pre-incubated with affinity purified PTK domain in the presence of phosphotyrosine assay buffer (10 mM HEPES, pH 7.5, 100 mM MgCl2, 25 mM NaCl, […] and 0.1% Tween 20) for 20 minutes. The compounds were then incubated with substrate in the presence of ATP. The substrate used was susbtrate-1 with the sequence biotin-EGPWLEEEEEAYGWMDF-NH2 [SEQ. ID. NO. 13] (final concentration […]). For HCK 80 μm ATP was used and incubated for 60 minutes. Alphascreen phosphotyrosine acceptor beads followed by streptavidin donor beads at a concentration of 1/100 in stop buffer were added to each well under subdued light and incubated for 2-3 hours., The Alphascreen plates were read on a Packard Fusion Alpha instrument.

Where only a bound is given, the exact number is not on record here.

For `C=CC(=O)Nc1ccc(Sc2ccnc(Nc3cccc(N4CCOCC4)c3)n2)cc1` [Compound 77, N-(4-(2-(3-morpholinophenylao)pyrimidin-4-ylthio)phenyl)acrylamide], the IC50 was under 500 nM. The value for `C=CC(=O)Nc1ccc(Sc2ccnc(Nc3cc(C)cc(C)c3)n2)cc1` [Compound 82, N-(4-(2-(3,5-dimethylphenylao)pyrimidin-4-ylthio)phenyl)acrylamide] was under 500 nM.
